According to publication PMC7597670 (Bioorganic & medicinal chemistry letters, 2010):

What was measured:
[1] = Pharmacokinetics after single oral and intravenous administration in rats; conditions: for AUC / Cmax: rat, plasma, po, 10 mg/kg; for BA: rats, 10 mg/kg po vs 3 mg/kg iv
human CCR5 = human CCR5 (Homo sapiens, UniProt P51681); format: cell-based; conditions: versus the other three stereoisomers of the hydroxylated analog of 1
HIV-1MM (R5MDR) = conditions: read-out: Anti-HIV-1 activity IC50 HIV-1MM (R5MDR); inhibition of HIV p24 antigen expression in PBMC; multidrug-resistant
HIV-1Ba-L (R5) = test: Anti-HIV-1 activity: inhibition of HIV p24 antigen expression in PBMC, HIV-1Ba-L; format: cell-based; conditions: read-out: Anti-HIV-1 activity IC50 HIV-1Ba-L (R5)

Sequence of human CCR5 (P51681 whole entry): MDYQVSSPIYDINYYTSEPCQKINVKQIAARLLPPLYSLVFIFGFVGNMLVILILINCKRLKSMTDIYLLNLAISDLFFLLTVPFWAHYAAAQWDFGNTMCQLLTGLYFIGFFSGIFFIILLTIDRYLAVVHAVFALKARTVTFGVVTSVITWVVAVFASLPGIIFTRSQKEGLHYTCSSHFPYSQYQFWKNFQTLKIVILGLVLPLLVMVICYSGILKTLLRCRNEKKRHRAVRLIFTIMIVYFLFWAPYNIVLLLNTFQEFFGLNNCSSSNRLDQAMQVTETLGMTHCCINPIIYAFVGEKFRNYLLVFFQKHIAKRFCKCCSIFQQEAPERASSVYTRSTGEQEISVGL

Row | Compound | AUC [1] | Cmax [1] | BA [1] | other results
1 | CCCCN1C(=O)C(CC(C)C)NC(=O)C12CCN(Cc1ccc(Oc3ccccc3)cc1)CC2.Cl (stereo not drawn) [Compound 1] | 96.7 ng·h/mL | 33.3 ng/mL | – | –
2 | CCCCN1C(=O)C(CC2CCCCC2)NC(=O)C12CCN(Cc1ccc(Oc3ccccc3)cc1)CC2.Cl (stereo not drawn) [Compound 2] | 24.8 ng·h/mL | 5.6 ng/mL | 1.9% | –
3 | CCCCN1C(=O)[C@@H]([C@H](O)C(C)C)NC(=O)C12CCN(Cc1ccc(Oc3ccccc3)cc1)CC2.Cl [Compound 3] | – | – | – | fold higher potency than the other isomers in Ca assay (human CCR5): 4.5-12 fold
4 | CCCCN1C(=O)[C@H](CC2CCCCC2)NC(=O)C12CCN(Cc1ccc(Oc3ccc(C(=O)O)cc3)cc1)CC2.Cl [Compound 5] | – | – | 34% | –
5 | SCH-351125 | – | – | – | IC50 (HIV-1MM (R5MDR)): 3 ± 0.5 nM; IC50 (HIV-1Ba-L (R5)): 4 ± 2 nM
